Laboratory results published in patent publication US20230041743A1, “1,8-NAPHTHYRIDIN-2-ONE COMPOUNDS FOR THE TREATMENT OF AUTOIMMUNE DISEASE” (Hoffmann-La Roche Inc., priority 2019, published 2023).

How the values were obtained:
[1] = Human microsomal stability assay; assay type: in vitro ADME; settings: human liver microsomes, 1 μM test compound, 0.5 mg/mL protein, 37° C.; low <7.0, medium 7.0-16.2, high 16.2-23.2
Procedure: Human Microsomal Stability Assay
Human liver microsomes (Cat. NO.: 452117, Corning, USA) were preincubated with test compound for 10 minutes at 37° C. in 100 mM potassium phosphate buffer, pH 7.4. The reactions were initiated by adding NADPH regenerating system. The final incubation mixtures contained 1 μM test compound, 0.5 mg/mL liver microsomal protein, 1 mM MgCl2, 1 mM NADP, 1 unit/mL isocitric dehydrogenase and 6 mM isocitric acid in 100 mM potassium phosphate buffer, pH 7.4. After incubation times of 0, 3, 6, 9, 15 and 30 minutes at 37° C., 300 μL of cold ACN (including internal standard) was added to 100 μL incubation mixture to terminate the reaction. Following precipitation and centrifugation, 100 uL supernatant will be taken out and added 300 uL water.
The amount of compound remaining in the samples was determined by LC-MS/MS. Controls of no NADPH regenerating system at zero and 30 minutes were also prepared and analyzed. The results were categorized as: low (<7.0 mL/min/kg), medium (7.0-16.2 mL/min/kg) and high (16.2-23.2 mL/min/kg).

human TLR7 = molecular target: T1, human TLR7 (Homo sapiens, UniProt Q9NYK1); test: HEK293-Blue-hTLR-7 cells assay (SEAP reporter, R848 stimulation); assay type: cell-based; settings: HEK293-Blue-hTLR7 cells, R848 ligand, 20 hrs incubation; read-out: HEK/hTLR7 IC50
T1 construct: host or cells: HEK293 (HEK-Blue hTLR7)
T1 sequence (Q9NYK1 27-1049): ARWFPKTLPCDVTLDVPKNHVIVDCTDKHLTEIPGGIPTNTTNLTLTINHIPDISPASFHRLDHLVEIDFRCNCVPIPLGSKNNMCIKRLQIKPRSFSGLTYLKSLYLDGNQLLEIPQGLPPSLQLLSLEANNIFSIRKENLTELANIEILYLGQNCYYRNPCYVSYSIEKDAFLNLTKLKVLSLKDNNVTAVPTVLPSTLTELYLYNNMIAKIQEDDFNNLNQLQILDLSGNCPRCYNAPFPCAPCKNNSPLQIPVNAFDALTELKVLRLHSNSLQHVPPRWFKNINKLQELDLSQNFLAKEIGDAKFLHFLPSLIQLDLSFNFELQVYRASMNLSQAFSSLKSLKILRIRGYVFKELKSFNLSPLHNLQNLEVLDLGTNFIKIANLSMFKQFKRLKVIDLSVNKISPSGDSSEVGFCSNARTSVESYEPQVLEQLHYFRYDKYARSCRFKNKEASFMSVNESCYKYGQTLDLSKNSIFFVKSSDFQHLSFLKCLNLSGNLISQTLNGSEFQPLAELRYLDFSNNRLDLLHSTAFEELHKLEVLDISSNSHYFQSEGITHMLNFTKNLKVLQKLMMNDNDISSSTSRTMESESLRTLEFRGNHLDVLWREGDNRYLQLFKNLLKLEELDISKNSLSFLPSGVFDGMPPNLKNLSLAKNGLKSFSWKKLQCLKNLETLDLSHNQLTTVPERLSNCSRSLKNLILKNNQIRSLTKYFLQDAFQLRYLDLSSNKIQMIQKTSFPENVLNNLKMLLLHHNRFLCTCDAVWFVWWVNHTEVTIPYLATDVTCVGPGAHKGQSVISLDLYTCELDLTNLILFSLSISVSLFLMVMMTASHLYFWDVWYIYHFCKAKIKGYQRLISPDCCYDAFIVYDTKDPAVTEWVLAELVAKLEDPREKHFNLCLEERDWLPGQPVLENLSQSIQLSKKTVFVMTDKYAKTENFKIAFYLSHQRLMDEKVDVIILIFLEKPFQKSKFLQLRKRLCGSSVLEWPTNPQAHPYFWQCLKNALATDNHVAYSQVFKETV
Excerpt: HEK293-Blue-hTLR-7 Cells Assay:
A stable HEK293-Blue-hTLR-7 cell line was purchased from InvivoGen (Cat. #: hkb-htlr7, San Diego, Calif., USA). These cells were originally designed for studying the stimulation of human TLR7 by monitoring the activation of NF-κB. A SEAP (secreted embryonic alkaline phosphatase) reporter gene was placed under the control of the IFN-β minimal promoter fused to five NF-κB and AP-1-binding sites. The SEAP was induced by activating NF-κB and AP-1 via stimulating HEK-Blue hTLR7 cells with TLR7 ligands. Therefore the reporter expression was declined by TLR7 antagonist under the stimulation of a ligand, such as R848 (Resiquimod), for incubation of 20 hrs. The cell culture supernatant SEAP reporter activity was determined using QUANTI-Blue™ kit (Cat. #: rep-qb1, Invivogen, San Diego, Ca, USA) at a wavelength of 640 nm, a detection medium that turns purple or blue in the presence of alkaline phosphatase.
HEK293-Blue-hTLR7 cells were incubated at a density of 250,000-450,000 cells/mL in a volume of 170 μL in a 96-well plate in Dulbecco's Modified Eagle's medium (DMEM) containing 4.5 g/L glucose, 50 U/mL penicillin, […], […], 2 mM L-glutamine, 10% (v/v) heat-inactivated fetal bovine serum with addition of 20 μL test compound in a serial dilution in the presence of final DMSO at 1% and 10 μL of 20 uM R848 in above DMEM, perform incubation under 37° C. in a CO2 incubator for 20 hrs. Then 20 μL of the supernatant from each well was incubated with 180 μL Quanti-blue substrate solution at 37° C. for 2 hrs and the absorbance was read at 620˜655 nm using a spectrophotometer. The signaling pathway that TLR7 activation leads to downstream NF-κB activation has been widely accepted, and therefore similar reporter assay was modified for evaluating TLR7 antagonist.

For C[C@@H]1CN(c2cc(=O)n(C)c3ncccc23)C[C@@H]2c3ccc(N4CCOC5(CNC5)C4)cc3CN12 [Example 11, 4-[(4R,10bS)-4-methyl-8-(5-oxa-2,8-diazaspiro[3.5]nonan-8-yl)-3,4,6,10b-tetrahydro-1H-pyrazino[2,1-a]isoindol-2-yl]-1-methyl-1,8-naphthyridin-2-one], the “CL (h)” value [1] was 6.9 mL/min/kg and the IC50 (human TLR7) was 0.0305 µM.

In the case of C[C@@H]1CN(c2cc(=O)n(C)c3ncccc23)C[C@@H]2c3ccc(N4CC[C@@](C)(N)C4)cc3CN12 [Example 4, 4-[(4R,10bS)-8-[(3R)-3-amino-3-methyl-pyrrolidin-1-yl]-4-methyl-3,4,6,10b-tetrahydro-1H-pyrazino[2,1-a]isoindol-2-yl]-1-methyl-1,8-naphthyridin-2-one], the “CL (h)” value [1] is reported as 6.3 mL/min/kg and the IC50 (human TLR7) is reported as 0.0395 µM.

With C[C@@H]1CN(c2cc(=O)n(C)c3ncccc23)C[C@@H]2c3ccc(N4CCN[C@@H](C)C4)cc3CN12 [Example 13, 4-[(4R,10bS)-4-methyl-8-[(3S)-3-methylpiperazin-1-yl]-3,4,6,10b-tetrahydro-1H-pyrazino[2,1-a]isoindol-2-yl]-1-methyl-1,8-naphthyridin-2-one] the “CL (h)” value [1] was 7.9 mL/min/kg and the IC50 (human TLR7) was 0.013 µM.

For C[C@@H]1CN(c2cc(=O)n(C)c3ncccc23)C[C@@H]2c3ccc(N4C[C@@H](N)[C@@H](F)C4)cc3CN12 [Example 7, 4-[(4R,10bS)-8-[(3R,4S)-3-amino-4-fluoro-pyrrolidin-1-yl]-4-methyl-3,4,6,10b-tetrahydro-1H-pyrazino[2,1-a]isoindol-2-yl]-1-methyl-1,8-naphthyridin-2-one], the “CL (h)” value [1] was 9.4 mL/min/kg and the IC50 (human TLR7) was 0.0437 µM.

With C[C@@H]1CN(c2cc(=O)n(C)c3ncccc23)C[C@@H]2c3ccc(C4CCNC4)cc3CN12 (stereo partly drawn) [Example 26, 4-[(4R,10bS)-4-methyl-8-pyrrolidin-3-yl-3,4,6,10b-tetrahydro-1H-pyrazino[2,1-a]isoindol-2-yl]-1-methyl-1,8-naphthyridin-2-one] the “CL (h)” value [1] was 9.8 mL/min/kg and the IC50 (human TLR7) was 0.0083 µM.

For C[C@@H]1CN(c2cc(=O)n(C)c3ncccc23)C[C@@H]2c3ccc(C4CCCNC4)cc3CN12 (stereo partly drawn) [Example 25, 4-[(4R,10bS)-4-methyl-8-(3-piperidyl)-3,4,6,10b-tetrahydro-1H-pyrazino[2,1-a]isoindol-2-yl]-1-methyl-1,8-naphthyridin-2-one], the “CL (h)” value [1] was 6.2 mL/min/kg and the IC50 (human TLR7) was 0.0067 µM.

In the case of C[C@@H]1CN(c2cc(=O)n(C)c3ncccc23)C[C@@H]2c3ccc([C@H]4C[C@H]5COC[C@@H](C4)N5)cc3CN12 [Example 28A, 4-[(4R,10bS)-4-methyl-8-(endo-3-oxa-9-azabicyclo[3.3.1]nonan-7-yl)-3,4,6,10b-tetrahydro-1H-pyrazino[2,1-a]isoindol-2-yl]-1-methyl-1,8-naphthyridin-2-one], the “CL (h)” value [1] is reported as 9.2 mL/min/kg and the IC50 (human TLR7) is reported as 0.0072 µM.

In the case of CO[C@H]1CCN(c2ccc3c(c2)CN2[C@H](C)CN(c4cc(=O)n(C)c5ncccc45)C[C@H]32)C[C@@H]1N [Example 9, 4-[(4R,10bS)-8-[(3S,4S)-3-amino-4-methoxy-1-piperidyl]-4-methyl-3,4,6,10b-tetrahydro-1H-pyrazino[2,1-a]isoindol-2-yl]-1-methyl-1,8-naphthyridin-2-one], the “CL (h)” value [1] is reported as 8.8 mL/min/kg and the IC50 (human TLR7) is reported as 0.0626 µM.

For C[C@@H]1CN(c2cc(=O)n(C)c3ncccc23)C[C@@H]2c3ccc(N4CC5(CN(C)C5)C4)cc3CN12 [Example 2, 4-[(4R,10bS)-4-methyl-8-(6-methyl-2,6-diazaspiro[3.3]heptan-2-yl)-3,4,6,10b-tetrahydro-1H-pyrazino[2,1-a]isoindol-2-yl]-1-methyl-1,8-naphthyridin-2-one], the “CL (h)” value [1] was 9.5 mL/min/kg and the IC50 (human TLR7) was 0.0115 µM.

For C[C@@H]1CN(c2cc(=O)n(C)c3ncccc23)C[C@@H]2c3ccc(N4CC5CCC(C4)N5)cc3CN12 [Example 21, 4-[(4R,10bS)-8-(3,8-diazabicyclo[3.2.1]octan-3-yl)-4-methyl-3,4,6,10b-tetrahydro-1H-pyrazino[2,1-a]isoindol-2-yl]-1-methyl-1,8-naphthyridin-2-one], the “CL (h)” value [1] was 6.4 mL/min/kg and the IC50 (human TLR7) was 0.0137 µM.

In the case of C[C@@H]1CN(c2cc(=O)n(C)c3ncccc23)C[C@@H]2c3ccc(C4CCNCC4)cc3CN12 [Example 24, 4-[(4R,10bS)-4-methyl-8-(4-piperidyl)-3,4,6,10b-tetrahydro-1H-pyrazino[2,1-a]isoindol-2-yl]-1-methyl-1,8-naphthyridin-2-one], the “CL (h)” value [1] is reported as 6.2 mL/min/kg and the IC50 (human TLR7) is reported as 0.0037 µM.

In the case of CO[C@@H]1CN(c2ccc3c(c2)CN2[C@H](C)CN(c4cc(=O)n(C)c5ncccc45)C[C@H]32)C[C@H]1N [Example 5, 4-[(4R,10bS)-8-[(3R,4R)-3-amino-4-methoxy-pyrrolidin-1-yl]-4-methyl-3,4,6,10b-tetrahydro-1H-pyrazino[2,1-a]isoindol-2-yl]-1-methyl-1,8-naphthyridin-2-one], the “CL (h)” value [1] is reported as 7.8 mL/min/kg and the IC50 (human TLR7) is reported as 0.0381 µM.

In the case of C[C@@H]1CN(c2cc(=O)n(C)c3ncccc23)C[C@@H]2c3ccc(N4CCNCC4)cc3CN12 [Example 12, 4-[(4R,10bS)-4-methyl-8-piperazin-1-yl-3,4,6,10b-tetrahydro-1H-pyrazino[2,1-a]isoindol-2-yl]-1-methyl-1,8-naphthyridin-2-one], the “CL (h)” value [1] is reported as 6.2 mL/min/kg and the IC50 (human TLR7) is reported as 0.0119 µM.

For C[C@@H]1CN(c2cc(=O)n(C)c3ncccc23)C[C@@H]2c3ccc(N4C[C@H]5C[C@@H]4CN5)cc3CN12 [Example 20, 4-[(4R,10bS)-8-[(1R,4R)-2,5-diazabicyclo[2.2.1]heptan-2-yl]-4-methyl-3,4,6,10b-tetrahydro-1H-pyrazino[2,1-a]isoindol-2-yl]-1-methyl-1,8-naphthyridin-2-one], the “CL (h)” value [1] was 6.2 mL/min/kg and the IC50 (human TLR7) was 0.0521 µM.

With C[C@@H]1CN(c2cc(=O)n(C)c3ncccc23)C[C@@H]2c3ccc(N4CCC[C@](C)(N)C4)cc3CN12 [Example 15, 4-[(4R,10bS)-8-[(3S)-3-amino-3-methyl-1-piperidyl]-4-methyl-3,4,6,10b-tetrahydro-1H-pyrazino[2,1-a]isoindol-2-yl]-1-methyl-1,8-naphthyridin-2-one] the “CL (h)” value [1] was 8.0 mL/min/kg and the IC50 (human TLR7) was 0.012 µM.
